The subject of one test is Candida albicans UP10. In kind it is cell-based. Conditions: for Anti-Candida activity (%) at 100 µg/mL: C7/pc42 H2 alanine-substituted derivatives, 37°C, 6 h, CFU assay, triplicate; for EC50: UP10, 6 h; for EC50asd/EC50H2: anti-Candida EC50 of the derivative relative to C7/pc42 H2.
The test system of test [1] is B16F10-Nex2 murine melanoma cells. It counts as cell-based. Conditions: for EC50: 12 h.
Method: Each peptide was tested in triplicate. After 12 h, the cytotoxic activities of the peptides were determined by measuring cell viability by Trypan Blue exclusion.

Where a SMILES comes first, the peptide text is derived from it.

Usually EC50 stands for the concentration that produces a half-maximal response. A high value points to weaker potency.

Method for Candida albicans UP10: The alanine substituted derivatives (asd), defined according to the position held by the alanine-substituted aminoacid, were tested in the same biological assays to critically establish the functional relevance of each residue [5]. In vitro microbicidal activity of CDR peptides and selected asd against C. albicans UP 10 (clinical isolate from the fungi collection of the University of Parma) and C. albicans NCPF 3153 (National Collection of Pathogenic Fungi, Bristol, UK) were used for the in vitro experiments.
The microbicidal activity of synthetic CDRs against C. albicans strains was preliminarily evaluated by testing 100 µg/mL of each synthetic peptide by colony forming unit (CFU) assays as previously described [5]. Briefly, 10 µL of a distilled water suspension containing ∼5×10^4/mL germinating yeast cells were added to 90 µL of distilled water containing the synthetic peptide to be tested. Yeast suspensions were incubated at 37°C for 6 h. After incubation, the cell suspensions were plated on Sabouraud dextrose agar, incubated at 30°C and observed for CFU determination after 48–72 hours. Each assay was carried out in triplicate. […] EC50 was calculated by nonlinear regression analysis using Graph Pad Prism 4.01 software, San Diego, CA, USA.

As for `CC[C@H](C)[C@H](NC(=O)[C@@H](N)Cc1ccc(O)cc1)C(=O)N[C@@H](CO)C(=O)N[C@@H](CS)C(=O)N[C@@H](Cc1ccc(O)cc1)C(=O)N[C@@H](CC(N)=O)C(=O)NCC(=O)N[C@@H](C)C(=O)N[C@@H](C)C(=O)N[C@@H](CO)C(=O)N[C@@H](Cc1ccc(O)cc1)C(=O)N[C@@H](CC(N)=O)C(=O)N[C@@H](CCC(N)=O)C(=O)N[C@@H](CCCCN)C(=O)N[C@@H](Cc1ccccc1)C(=O)N[C@@H](CCCCN)C(=O)O` [T9A] (H-YISCYNGAASYNQKFK-OH; N-terminus and C-terminus assumed), in the test with Candida albicans UP10, the “Anti-Candida activity (%) at 100 µg/mL” value is on record as 100.00%, the EC50 came out at 3.8 µM and the EC50asd/EC50H2 stood at 0.91. Moreover, in test [1], the EC50 came to 60.2 µM.
As to `CC[C@H](C)[C@H](NC(=O)[C@@H](N)Cc1ccc(O)cc1)C(=O)N[C@@H](CO)C(=O)N[C@@H](CS)C(=O)N[C@@H](Cc1ccc(O)cc1)C(=O)N[C@@H](CC(N)=O)C(=O)NCC(=O)N[C@@H](C)C(=O)N[C@H](C(=O)N[C@@H](C)C(=O)N[C@@H](Cc1ccc(O)cc1)C(=O)N[C@@H](CC(N)=O)C(=O)N[C@@H](CCC(N)=O)C(=O)N[C@@H](CCCCN)C(=O)N[C@@H](Cc1ccccc1)C(=O)N[C@@H](CCCCN)C(=O)O)[C@@H](C)O` [S10A] (H-YISCYNGATAYNQKFK-OH; N-terminus and C-terminus assumed), in the test on Candida albicans UP10, the “Anti-Candida activity (%) at 100 µg/mL” value was determined as 100.00%, the EC50 was found to be 13.2 µM and the EC50asd/EC50H2 is 3.16. For the same molecule, the EC50 in test [1] worked out at 119 µM.
For `CC(C)C[C@H](NC(=O)[C@H](CC(C)C)NC(=O)[C@H](CO)NC(=O)[C@H](CCC(N)=O)NC(=O)[C@H](CO)NC(=O)[C@H](CO)NC(=O)[C@@H](N)CCCCN)C(=O)N[C@@H](CC(N)=O)C(=O)N[C@@H](CO)C(=O)NCC(=O)N[C@@H](CC(N)=O)C(=O)N[C@@H](CCC(N)=O)C(=O)N[C@@H](CCCCN)C(=O)N[C@@H](CC(N)=O)C(=O)N[C@@H](Cc1ccc(O)cc1)C(=O)N[C@@H](CC(C)C)C(=O)N[C@H](C(=O)O)[C@@H](C)O` [C7 L1] (H-KSSQSLLNSGNQKNYLT-OH), in the test on Candida albicans UP10, a half-maximal effect (EC50) was put at 15.2 µM.
As for “SYNQKFK [C-terminal peptide of C7/pc42 H2]”, the “apoptotic activity in melanoma cells” value in test [1] (data not shown) is “not apoptotic by itself”.
Turning to `CC[C@H](C)[C@H](NC(=O)[C@@H](N)Cc1ccc(O)cc1)C(=O)N[C@@H](CO)C(=O)N[C@@H](CS)C(=O)N[C@@H](Cc1ccc(O)cc1)C(=O)N[C@@H](C)C(=O)NCC(=O)N[C@@H](C)C(=O)N[C@H](C(=O)N[C@@H](CO)C(=O)N[C@@H](Cc1ccc(O)cc1)C(=O)N[C@@H](CC(N)=O)C(=O)N[C@@H](CCC(N)=O)C(=O)N[C@@H](CCCCN)C(=O)N[C@@H](Cc1ccccc1)C(=O)N[C@@H](CCCCN)C(=O)O)[C@@H](C)O` [N6A] (H-YISCYAGATSYNQKFK-OH; N-terminus and C-terminus assumed), in the test with Candida albicans UP10, the “Anti-Candida activity (%) at 100 µg/mL” value came to 100.00%, it took 1.54 µM to reach a half-maximal effect (EC50) and the EC50asd/EC50H2 worked out at 0.37. In test [1], a half-maximal response (EC50) required 76.9 µM.
The matching figures for `CC[C@H](C)[C@H](NC(=O)[C@H](C)N)C(=O)N[C@@H](CO)C(=O)N[C@@H](CS)C(=O)N[C@@H](Cc1ccc(O)cc1)C(=O)N[C@@H](CC(N)=O)C(=O)NCC(=O)N[C@@H](C)C(=O)N[C@H](C(=O)N[C@@H](CO)C(=O)N[C@@H](Cc1ccc(O)cc1)C(=O)N[C@@H](CC(N)=O)C(=O)N[C@@H](CCC(N)=O)C(=O)N[C@@H](CCCCN)C(=O)N[C@@H](Cc1ccccc1)C(=O)N[C@@H](CCCCN)C(=O)O)[C@@H](C)O` [Y1A] (H-AISCYNGATSYNQKFK-OH; N-terminus and C-terminus assumed): 99.37%, 6.21 µM, 1.48 and 71.4 µM.
Consider `CC[C@H](C)[C@H](NC(=O)[C@@H](N)Cc1ccc(O)cc1)C(=O)N[C@@H](CO)C(=O)N[C@@H](CS)C(=O)N[C@@H](Cc1ccc(O)cc1)C(=O)N[C@@H](CC(N)=O)C(=O)NCC(=O)N[C@@H](C)C(=O)N[C@H](C(=O)N[C@@H](CO)C(=O)N[C@@H](C)C(=O)N[C@@H](CC(N)=O)C(=O)N[C@@H](CCC(N)=O)C(=O)N[C@@H](CCCCN)C(=O)N[C@@H](Cc1ccccc1)C(=O)N[C@@H](CCCCN)C(=O)O)[C@@H](C)O` [Y11A] (H-YISCYNGATSANQKFK-OH; N-terminus and C-terminus assumed), for which, in the test on Candida albicans UP10, the “Anti-Candida activity (%) at 100 µg/mL” value came to 55.70%, it took 47.6 µM to reach a half-maximal effect (EC50) and the EC50asd/EC50H2 came to 11.35. The molecule further gave an EC50 in test [1] of 113 µM.
As for `N=C(N)NCCC[C@H](NC(=O)[C@H](CO)NC(=O)[C@H](CCCNC(=N)N)NC(=O)[C@@H]1CCCN1C(=O)[C@H](Cc1ccc(O)cc1)NC(=O)[C@H](CO)NC(=O)[C@H](Cc1ccc(O)cc1)NC(=O)[C@H](CC(=O)O)NC(=O)[C@@H](N)CC(N)=O)C(=O)O` [C7 L3] (H-NDYSYPRSR-OH), the EC50 in the test with Candida albicans UP10 worked out at 20.2 µM.
On the same count and under the same terms, to `CSCC[C@H](NC(=O)[C@H](Cc1ccc(O)cc1)NC(=O)[C@H](CO)NC(=O)[C@H](Cc1ccc(O)cc1)NC(=O)CNC(=O)[C@H](CO)NC(=O)[C@@H](NC(=O)[C@H](CO)NC(=O)[C@@H](NC(=O)[C@H](CO)NC(=O)[C@H](CCCCN)NC(=O)[C@H](CO)NC(=O)[C@H](C)NC(=O)[C@H](CCCNC(=N)N)NC(=O)[C@@H](N)Cc1ccc(O)cc1)C(C)C)[C@@H](C)O)C(=O)N[C@@H](Cc1c[nH]cn1)C(=O)O` [pc42 L1] (H-YRASKSVSTSGYSYMH-OH) belongs 0.78 µM.
`CC[C@H](C)[C@H](NC(=O)[C@@H](N)Cc1ccc(O)cc1)C(=O)N[C@@H](CO)C(=O)N[C@@H](CS)C(=O)N[C@@H](Cc1ccc(O)cc1)C(=O)N[C@@H](CC(N)=O)C(=O)N[C@@H](C)C(=O)N[C@@H](C)C(=O)N[C@H](C(=O)N[C@@H](CO)C(=O)N[C@@H](Cc1ccc(O)cc1)C(=O)N[C@@H](CC(N)=O)C(=O)N[C@@H](CCC(N)=O)C(=O)N[C@@H](CCCCN)C(=O)N[C@@H](Cc1ccccc1)C(=O)N[C@@H](CCCCN)C(=O)O)[C@@H](C)O` [G7A] (H-YISCYNAATSYNQKFK-OH; N-terminus and C-terminus assumed): in the test on Candida albicans UP10, the “Anti-Candida activity (%) at 100 µg/mL” value came out at 100.00%, a half-maximal response (EC50) required 7.31 µM and the EC50asd/EC50H2 came to 1.74. Also, the response in test [1] was half-maximal at 63.2 µM (EC50).
The matching figures for `CC[C@H](C)[C@H](NC(=O)[C@@H](N)Cc1ccc(O)cc1)C(=O)N[C@@H](CO)C(=O)N[C@@H](CS)C(=O)N[C@@H](Cc1ccc(O)cc1)C(=O)N[C@@H](CC(N)=O)C(=O)NCC(=O)N[C@@H](C)C(=O)N[C@H](C(=O)N[C@@H](CO)C(=O)N[C@@H](Cc1ccc(O)cc1)C(=O)N[C@@H](C)C(=O)N[C@@H](CCC(N)=O)C(=O)N[C@@H](CCCCN)C(=O)N[C@@H](Cc1ccccc1)C(=O)N[C@@H](CCCCN)C(=O)O)[C@@H](C)O` [N12A] (H-YISCYNGATSYAQKFK-OH; N-terminus and C-terminus assumed): 100.00%, 6.48 µM, 1.55 and 125 µM.
The matching figures for `C[C@H](NC(=O)CNC(=O)[C@H](CC(N)=O)NC(=O)[C@H](Cc1ccc(O)cc1)NC(=O)[C@H](CS)NC(=O)[C@H](CO)NC(=O)[C@H](C)NC(=O)[C@@H](N)Cc1ccc(O)cc1)C(=O)N[C@H](C(=O)N[C@@H](CO)C(=O)N[C@@H](Cc1ccc(O)cc1)C(=O)N[C@@H](CC(N)=O)C(=O)N[C@@H](CCC(N)=O)C(=O)N[C@@H](CCCCN)C(=O)N[C@@H](Cc1ccccc1)C(=O)N[C@@H](CCCCN)C(=O)O)[C@@H](C)O` [I2A] (H-YASCYNGATSYNQKFK-OH; N-terminus and C-terminus assumed): 99.77%, 6.25 µM, 1.49 and 73.5 µM.
As to `CC(C)C[C@H](NC(=O)[C@H](CC(N)=O)NC(=O)[C@H](CO)NC(=O)[C@@H](NC(=O)[C@@H](N)CC(C)C)C(C)C)C(=O)N[C@@H](CCC(=O)O)C(=O)N[C@@H](CO)C(=O)O` [pc42 L2] (H-LVSNLES-OH), in the test with Candida albicans UP10, a half-maximal effect (EC50) was put at 12 µM.
On the same count and under the same terms, with `N=C(N)NCCC[C@H](NC(=O)[C@H](CCC(N)=O)NC(=O)[C@@H](N)CCC(N)=O)C(=O)N[C@@H](CO)C(=O)N[C@@H](CC(N)=O)C(=O)N[C@@H](Cc1c[nH]c2ccccc12)C(=O)N1CCC[C@H]1C(=O)N[C@@H](CCCNC(=N)N)C(=O)N[C@@H](CO)C(=O)O` [HuA L3] (H-QQRSNWPRS-OH) the figure was 5.11 µM.
As for `CC[C@H](C)[C@H](NC(=O)[C@@H](N)Cc1ccc(O)cc1)C(=O)N[C@@H](CO)C(=O)N[C@@H](CS)C(=O)N[C@@H](Cc1ccc(O)cc1)C(=O)N[C@@H](CC(N)=O)C(=O)NCC(=O)N[C@@H](C)C(=O)N[C@H](C(=O)N[C@@H](CO)C(=O)N[C@@H](Cc1ccc(O)cc1)C(=O)N[C@@H](CC(N)=O)C(=O)N[C@@H](CCC(N)=O)C(=O)N[C@@H](CCCCN)C(=O)N[C@@H](Cc1ccccc1)C(=O)N[C@@H](C)C(=O)O)[C@@H](C)O` [K16A] (H-YISCYNGATSYNQKFA-OH; N-terminus and C-terminus assumed), in the test with Candida albicans UP10, the “Anti-Candida activity (%) at 100 µg/mL” value is given as 0%, the response was half-maximal at 161 µM (EC50) and the EC50asd/EC50H2 is recorded as 38.35. This molecule also displayed an EC50 in test [1] of 87 µM.
Consider `CC[C@H](C)[C@H](NC(=O)[C@@H](N)Cc1ccc(O)cc1)C(=O)N[C@@H](CO)C(=O)N[C@@H](C)C(=O)N[C@@H](Cc1ccc(O)cc1)C(=O)N[C@@H](CC(N)=O)C(=O)NCC(=O)N[C@@H](C)C(=O)N[C@H](C(=O)N[C@@H](CO)C(=O)N[C@@H](Cc1ccc(O)cc1)C(=O)N[C@@H](CC(N)=O)C(=O)N[C@@H](CCC(N)=O)C(=O)N[C@@H](CCCCN)C(=O)N[C@@H](Cc1ccccc1)C(=O)N[C@@H](CCCCN)C(=O)O)[C@@H](C)O` [C4A] (H-YISAYNGATSYNQKFK-OH; N-terminus and C-terminus assumed), for which, in the test on Candida albicans UP10, the “Anti-Candida activity (%) at 100 µg/mL” value is given as 94.51%, the EC50 is 8.23 µM and the EC50asd/EC50H2 worked out at 1.96. This molecule also showed an EC50 in test [1] of 67.5 µM.

The values above are taken from paper PMC2396520, “Antibody Complementarity-Determining Regions (CDRs) Can Display Differential Antimicrobial, Antiviral and Antitumor Activities” (PLoS ONE, 2008).
